Here are results for one molecule from publication PMC12486152, “Design, modular synthesis and screening of 58 shape-diverse 3-D fragments” (Chemical Science, 2025).

SMILES strings stand for the structures.

The target of the assay is T1, N-acetylglucosaminyltransferase V (MGATV) (Homo sapiens, UniProt Q09328).
T1 construct: gene MGAT5
Nature of the assay: X-ray crystal structure by soaking; also thermal shift, STD NMR and enzyme (UDP-Glo) inhibition (IC50, n = […]). Type of assay: biochemical.

T1 sequence (Q09328 214-741): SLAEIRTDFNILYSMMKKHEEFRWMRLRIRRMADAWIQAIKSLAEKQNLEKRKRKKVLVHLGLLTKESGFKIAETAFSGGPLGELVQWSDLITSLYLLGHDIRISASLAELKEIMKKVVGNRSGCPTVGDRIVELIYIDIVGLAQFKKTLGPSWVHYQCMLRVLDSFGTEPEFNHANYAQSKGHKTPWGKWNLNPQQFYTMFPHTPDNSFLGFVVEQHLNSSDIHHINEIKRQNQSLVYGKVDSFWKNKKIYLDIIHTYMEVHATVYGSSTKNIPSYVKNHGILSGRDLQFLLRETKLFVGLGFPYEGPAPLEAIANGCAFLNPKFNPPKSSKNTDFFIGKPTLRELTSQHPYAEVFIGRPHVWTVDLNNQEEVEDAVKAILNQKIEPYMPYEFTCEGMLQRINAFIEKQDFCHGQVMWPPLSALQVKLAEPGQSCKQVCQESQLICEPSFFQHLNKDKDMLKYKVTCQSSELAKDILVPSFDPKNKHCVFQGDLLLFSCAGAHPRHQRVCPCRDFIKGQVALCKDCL

A word on the IC50: it is the concentration needed to halve the response being measured. As for `CC(=O)N1CCCC(C(=O)O)(c2ccc(C)cc2)C1` (racemic) [8p], the IC50 was ~4.4 mM.
